Experimental data as given in patent US10987359B2, “Oxadiazepinone derivatives and methods of treating hepatitis B infections” (priority 2016, dated 2021).

test system: HBV; assay: HBV replication inhibition assay (BDNA assay) in HepG2.2.15 cells; type: cell-based; details: HBV replication assay (BDNA assay), HepG2.2.15 cells; read-out: DNA EC50
Summary of the method: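 HepG2.2.15 cells with stably integrated HBV were treated with serially diluted compounds at 0.5% DMSO for 6 days, with medium and compound refreshed at day 3. Encapsidated HBV DNA from DNase-treated supernatant was quantified by branched DNA assay. EC50 came from % inhibition versus DMSO, fitted non-linearly.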

**Q.** How did the EC50 turn out when CC(=O)NCC1Cn2nc3c(c2C(=O)N(C)O1)CN(C(=O)Nc1ccc(F)c(C#N)c1)[C@H](C)C3 (single isomer, unassigned) [Compound 176_D2, (4R*,9R)-4-(acetamidomethyl)-N-(3-cyano-4-fluorophenyl)-2,9-dimethyl-1-oxo-1,4,5,8,9,11-hexahydropyrido[4′,3′:3,4]pyrazolo[5,1-d][1,2,5]oxadiazepine-10(2H)-carboxamide] was run?
**A.** 1 to 100 nM

**Q.** COC(=O)NCC1Cn2nc3c(c2C(=O)N(C)O1)CN(C(=O)Nc1ccc(F)c(C#N)c1)[C@H](C)C3 (single isomer, unassigned) [Compound 180_D2, methyl (((4R*,9R)-10-((3-cyano-4-fluorophenyl)carbamoyl)-2,9-dimethyl-1-oxo-1,2,4,5,8,9,10,11-octahydropyrido[4′,3′:3,4]pyrazolo[5,1-d][1,2,5]oxadiazepin-4-yl)methyl)carbamate] was tested. Which EC50 did it give?
**A.** 1 to 100 nM

**Q.** Which EC50 does the source give for C[C@@H]1Cc2nn3c(c2CN1C(=O)Nc1ccc(F)c(C(F)(F)F)c1)C(=O)N(C)OC(CNCC(F)F)C3 (single isomer, unassigned) [Compound 182_D2, (4R*,9R)-4-(((2,2-difluoroethyl)amino)methyl)-N-(4-fluoro-3-(trifluoromethyl)phenyl)-2,9-dimethyl-1-oxo-1,4,5,8,9,11-hexahydropyrido[4′,3′:3,4]pyrazolo[5,1-d][1,2,5]oxadiazepine-10(2H)-carboxamide] here?
**A.** 1 to 100 nM

same assay, conditions: Hepatitis B virus, HepG2.2.15, HBV replication assay (BDNA assay), HepG2.2.15 cells; read-out: DNA EC50

**Q.** How did the EC50 turn out when CN1OC(CNCC(F)F)Cn2nc3c(c2C1=O)CN(C(=O)Nc1ccc(F)c(C#N)c1F)CC3 (single isomer, unassigned) [Compound 186_E1, (S*)—N-(3-cyano-2,4-difluorophenyl)-4-(((2,2-difluoroethyl)amino)methyl)-2-methyl-1-oxo-1,4,5,8,9,11-hexahydropyrido[4′,3′:3,4]pyrazolo[5,1-d][1,2,5]oxadiazepine-10(2H)-carboxamide] was run?
**A.** 1 to 100 nM

**Q.** Which EC50 does the source give for CN1OC(C(=O)NCC(F)(F)F)Cn2nc3c(c2C1=O)CN(C(=O)Nc1ccc(F)c(Cl)c1)CC3 (stereo not drawn) [Compound 135, N10-(3-chloro-4-fluorophenyl)-2-methyl-1-oxo-N4-(2,2,2-trifluoroethyl)-1,4,5,8,9,11-hexahydropyrido[4′,3′:3,4]pyrazolo[5,1-d][1,2,5]oxadiazepine-4,10(2H)-dicarboxamide] here?
**A.** 1 to 100 nM

**Q.** COC(=O)NCC1Cn2nc3c(c2C(=O)N(C)O1)CN(C(=O)Nc1ccc(F)c(Cl)c1)CC3 (stereo not drawn) [Compound 166, methyl((10-((3-chloro-4-fluorophenyl)carbamoyl)-2-methyl-1-oxo-1,2,4,5,8,9,10,11-octahydropyrido[4′,3′:3,4]pyrazolo[5,1-d][1,2,5]oxadiazepin-4-yl)methyl)carbamate] was tested. Which EC50 did it give?
**A.** 1 to 100 nM

**Q.** How did the EC50 turn out when CN1OC(CNC(=O)OCC(F)(F)F)Cn2nc3c(c2C1=O)CN(C(=O)Nc1ccc(F)c(Cl)c1)CC3 (stereo not drawn) [Compound 207, 2,2,2-trifluoroethyl ((10-((3-chloro-4-fluorophenyl)carbamoyl)-2-methyl-1-oxo-1,2,4,5,8,9,10,11-octahydropyrido[4′,3′:3,4]pyrazolo[5,1-d][1,2,5]oxadiazepin-4-yl)methyl)carbamate] was run?
**A.** 1 to 100 nM

**Q.** Which EC50 does the source give for CN1CCn2nc3c(c2C(=O)N1C)CN(C(=O)Nc1ccc(F)c(Cl)c1)CC3 [Compound 217, N-(3-Chloro-4-fluorophenyl)-2,3-dimethyl-1-oxo-1,2,3,4,5,8,9,11-octahydro-10H-pyrido[4′,3′:3,4]pyrazolo[5,1-d][1,2,5]triazepine-10-carboxamide] here?
**A.** 1 to 100 nM

**Q.** How did the EC50 turn out when C=CCN1CCn2nc3c(c2C(=O)N1C)CN(C(=O)Nc1ccc(F)c(C#N)c1)[C@H](C)C3 [Compound 218, (R)-3-allyl-N-(3-cyano-4-fluorophenyl)-2,9-dimethyl-1-oxo-1,2,3,4,5,8,9,11-octahydro-10H-pyrido[4′,3′:3,4]pyrazolo[5,1-d][1,2,5]triazepine-10-carboxamide] was run?
**A.** 1 to 100 nM

**Q.** Which EC50 does the source give for C[C@@H]1Cc2nn3c(c2CN1C(=O)Nc1ccnc(Br)c1F)C(=O)N(C)OCC3 [Compound 078, (R)—N-(2-bromo-3-fluoropyridin-4-yl)-2,9-dimethyl-1-oxo-1,4,5,8,9,11-hexahydropyrido[4′,3′:3,4]pyrazolo[5,1-d][1,2,5]oxadiazepine-10(2H)-carboxamide] here?
**A.** 1 to 100 nM

**Q.** CN(C)CC1Cn2nc3c(c2C(=O)N(C)O1)CN(C(=O)Nc1ccc(F)c(Cl)c1)CC3 (stereo not drawn) [Compound 058, N-(3-chloro-4-fluoro-phenyl)-4-[(dimethylamino)methyl]-2-methyl-1-oxo-5,8,9,11-tetrahydro-4H-pyrido[2,3]pyrazolo[2,4-d][1,2,5]oxadiazepine-10-carboxamide] was tested. Which EC50 did it give?
**A.** 1 to 100 nM

**Q.** CN1OC(CO)Cn2nc3c(c2C1=O)CN(C(=O)Nc1ccc(F)c(Cl)c1F)CC3 (stereo not drawn) [Compound 007, N-(3-chloro-2,4-difluorophenyl)-4-(hydroxymethyl)-2-methyl-1-oxo-1,4,5,8,9,11-hexahydropyrido[4′,3′:3,4]pyrazolo[5,1-d][1,2,5]oxadiazepine-10(2H)-carboxamide] was tested. Which EC50 did it give?
**A.** 1 to 100 nM

**Q.** Which EC50 does the source give for CN1OC(CO)Cn2nc3c(c2C1=O)CN(C(=O)Nc1ccc(F)c(F)c1)CC3 (stereo not drawn) [Compound 005, N-(3,4-difluorophenyl)-4-(hydroxymethyl)-2-methyl-1-oxo-1,4,5,8,9,11-hexahydropyrido[4′,3′:3,4]pyrazolo[5,1-d][1,2,5]oxadiazepine-10(2H)-carboxamide] here?
**A.** 1 to 100 nM

**Q.** For CC(=O)NCC1Cn2nc3c(c2C(=O)N(C)O1)CN(C(=O)Nc1ccc(F)c(C(F)(F)F)c1)[C@H](C)C3 (single isomer, unassigned) [Compound 177_D1, (4S*,9R)-4-(acetamidomethyl)-N-(4-fluoro-3-(trifluoromethyl)phenyl)-2,9-dimethyl-1-oxo-1,4,5,8,9,11-hexahydropyrido[4′,3′:3,4]pyrazolo[5,1-d][1,2,5]oxadiazepine-10(2H)-carboxamide], which EC50 is on record?
**A.** 1 to 100 nM

**Q.** Which EC50 does the source give for CN1OC(CO)Cn2nc3c(c2C1=O)CC(C(=O)Nc1ccc(F)c(Cl)c1)CC3 (stereo not drawn) [Compound 209, N-(3-chloro-4-fluoro-phenyl)-4-(hydroxymethyl)-2-methyl-1-oxo-4,5,8,9,10,11-hexahydro-[1,2,5]oxadiazepino[5,4-b]indazole-10-carboxamide] here?
**A.** 500 to 1000 nM

**Q.** Which EC50 does the source give for C[C@@H]1Cc2nn3c(c2CN1C(=O)Nc1ccc(F)c(C#N)c1)C(=O)N(C)OC(C)(C)C3 [Compound 213, (R)—N-(3-cyano-4-fluorophenyl)-2,4,4,9-tetramethyl-1-oxo-1,4,5,8,9,11-hexahydropyrido[4′,3′:3,4]pyrazolo[5,1-d][1,2,5]oxadiazepine-10(2H)-carboxamide] here?
**A.** 1 to 100 nM

**Q.** With CN1OC(CO)Cn2nc3c(c2C1=O)CN(C(=O)Nc1cc(Cl)c(F)c(C(F)(F)F)c1)CC3 (stereo not drawn) [Compound 022, N-(3-chloro-4-fluoro-5-(trifluoromethyl)phenyl)-4-(hydroxymethyl)-2-methyl-1-oxo-1,4,5,8,9,11-hexahydropyrido[4′,3′:3,4]pyrazolo[5,1-d][1,2,5]oxadiazepine-10(2H)-carboxamide] as the molecule, how does the EC50 read?
**A.** 1 to 100 nM

**Q.** For C[C@@H]1Cc2nn3c(c2CN1C(=O)Nc1ccc(F)c(C#N)c1)C(=O)N(C)N(CCO)CC3 [Compound 220, (R)—N-(3-Cyano-4-fluorophenyl)-3-(2-hydroxyethyl)-2,9-dimethyl-1-oxo-1,2,3,4,5,8,9,11-octahydro-10H-pyrido[4′,3′:3,4]pyrazolo[5,1-d][1,2,5]triazepine-10-carboxamide], which EC50 is on record?
**A.** 100 to 500 nM
